Assay results as given in PMC10888192, “New Derivatives of 1-(3-Methyl-1-Benzofuran-2-yl)Ethan-1-one: Synthesis and Preliminary Studies of Biological Activity” (International Journal of Molecular Sciences, 2024).

Assays:
[1] = system: K562 cells (human chronic myelogenous leukemia); test: MTT cytotoxicity assay, K562; assay type: cell-based; conditions: 72 h incubation, mean ± SD
Procedure: (§1) The cell viability was analyzed at the following six concentrations of compounds: 5, 10, 20, 40, 60 and 100 µM after 72 h incubation.
(§2) Additionally, to determine the safety profile of the tested compounds, the therapeutic index (TI) (the ratio of IC50 value in HaCaT to cancer cells K562) was calculated. […] The goal of conducting the MTT assay in this research was to select benzofuran derivatives, which manage to reduce viability of cancer cells while exposing mild effects on normal healthy cells.
(§3) The cytotoxicity was evaluated by MTT reduction assay, which measures mitochondrial respiratory function. The test was performed based on the method described by Präbst et al.. Cells (1 × 10^4/well), in logarithmic phase, were seeded into 96-well plates in appropriate medium. After 24 h, cells were exposed to test compounds. […] After 72 h, the medium with the compounds was completely removed and MTT solution (0.5 mg/mL) in fresh medium without serum was added to each well. Plates with cells were incubated for 4 h at 37 °C in the dark. Then, MTT solution was removed and replenished with 0.1 mL DMSO: isopropanol (1:1) mixture to dissolve the generated formazan crystals. The optical density was measured with a […] GO (ThermoScientific) microplate reader at 570 nm. Replicates of three wells for each dosage, including vehicle control, were analyzed for each experiment. The experiments were conducted in triplicate. Control cells which were only treated with respective medium were used as the 100% viability value. […] Additionally, to determine the safety profile of the test compounds, therapeutic indexes (TI) (the ratio of IC50 values in HaCat to cancer cells (K562, PC3, SW620, Cack-1)) were calculated.

[2] = system: PC3 cells (human metastatic prostate cancer); test: MTT cytotoxicity assay, PC3; assay type: cell-based; conditions: PC-3, 72 h incubation, mean ± SD
Procedure: as §1, §2, §3

[3] = system: HaCaT cells (human immortal keratinocytes); test: MTT cytotoxicity assay, HaCaT; assay type: cell-based; conditions: 72 h incubation, mean ± SD
Procedure: as §1, §2, §3

HaCaT cells = test: Trypan blue exclusion assay, HaCaT; assay type: cell-based, human; conditions: IC50 concentration, 72 h
Procedure: The MTT assay assesses the viable cell number based on mitochondrial enzyme activity. […] In the next step of our studies, we analyzed the total cell number and viability after exposure to the selected compounds at IC50 concentration using trypan blue exclusion assay. K562 cells were incubated with tested compounds over 72 h. […] To assess the antiproliferative properties of newly synthesized derivatives, we analyzed the total cell number. […] The parallel experiment was conducted with HaCaT cells. […] The trypan blue test rapidly assesses cell viability indirectly from cell membrane integrity, but some publications have indicated weaknesses of this viability test. […] On the other hand, cell membrane integrity may be affected even while the cell might still be able to repair itself and become fully viable.
To evaluate the antiproliferative effects of the novel benzofurans derivatives the trypan blue exclusion assay was performed. Cells (HaCat, and K562) were seeded into 12-well plates (2 × 10^4 cells/well). After 24 h, cells were exposed to the tested compounds at concentrations of their respective IC50 and incubated for 72h. […] Cells were counted by automatic cell counter (Countessa). Data obtained were expressed as the mean ± SD and the mean percentage of viable cells was calculated from three independent experiments performed in triplicate.

[4] = system: reactive oxygen species (H2O2) in K562 cells; test: ROS generation (DHR 123 and DCFH-DA fluorescence); assay type: cell-based, human; conditions: K562, IC50 concentration, 12 h incubation, DHR123 or DCF-DA, compared with untreated cells
Text: The resulting data were expressed as mean ± SD from three independent experiments performed in triplicate.

K562 cells = test: Annexin V-FITC/PI apoptosis assay, flow cytometry; assay type: cell-based, human; conditions: Annexin V-FITC, IC50 concentration, 72 h
Text: ROS may play a different function in different stages of cancer. ROS might enhance cell growth and proliferation through the induction of various cell signaling pathways involving nuclear factor-kappa B (NF-κB) and STAT3, hypoxia-inducible factor 1α (HIF1α), kinases, growth factors, cytokines and many other proteins. On the other hand, the accumulation of ROS can induce cell damage and promote apoptosis. It has also been confirmed that elevated ROS concentration may cause mitochondrial membrane depolarization and facilitate increased cellular pro-apoptotic molecules releasing. […] As has been previously reported, lead compound 1,1′-[3-(bromomethyl)-5,6-dimethoxy-1-benzofuran-2,7-diyl] induces apoptosis in human leukemia cells. […] We used the Annexin V-FITC test, which allows us to detect the early structural changes in cellular membrane which occur during apoptosis. […] In the control sample almost 94% of cells were neither apoptotic nor necrotic. […] As has been previously written, the MTT test assesses the toxicity of tested compounds based on the activity of mitochondrial enzymes. […] In order to estimate the effect of K562 exposure on the tested compounds as well as to confirm apoptotic properties of new benzofurans, we analyzed the effect of the compounds caspases 3 and 7 activities. […]

Row | SMILES | IC50 [1] | IC50 [2] | IC50 [3] | Cell Number (×10^6) (HaCaT cells) | Increase of fluorescence intensity (ROS generation) [4] | Apoptosis (early and late stages), share of K562 cells (K562 cells)
1 | CCOc1cccc2oc(C(C)=O)c(CBr)c12 [Compound 8, 1-[3-(Bromomethyl)-4-Ethoxy-1-Benzofuran-2-yl]Ethanone] | 2.59 ± 0.88 µM | 7.86 ± 2.62 µM | 23.6 ± 10.7 µM | 2.00 ± 0.42 ×10^6 | statistically significant increase of fluorescence intensity | 60.1%
2 | COc1cc(OC)c2c(CBr)c(C(C)=O)oc2c1 [Compound 6, 1-[3-(Bromomethyl)-4,6-Dimethoxy-1-Benzofuran-2-yl]Ethanone] | 3.83 ± 0.6 µM | 7.02 ± 2.22 µM | 12.4 ± 1.27 µM | 2.45 ± 1.63 ×10^6 | two-fold increase in fluorescence intensity | 21.6%
